According to paper PMC12553364 (PeerJ, 2025):
Where two headings read alike, the source gives them in different places.

Tests used:
[1] = In vivo pharmacokinetic interaction study in Sprague-Dawley rats; conditions: for AUC(0-inf) / AUC(0-t) / Cmax / Tmax / half-life / CL/F: male, Sprague-Dawley, rat, plasma, po, 25 mg/kg, rat plasma, n = 5, mean ± S.D.; for CL/F: read-out: CLz/F (converted)
Method: Protein precipitation was used to remove proteins from plasma and extract the test materials. To this end, 100 µL of plasma sample was combined with 10 µL of the IS working solution (400 ng/mL) and 300 µL of acetonitrile. The mixture was then centrifuged at 13,000 rpm for 10 min at 4 °C to ensure complete protein precipitation. After centrifugation, the supernatant was carefully collected and transferred into a sample vial. Finally, 2.0 µL of sample was injected for UPLC-MS/MS analysis.
The study was approved by Institutional Animal Care and Use Committee of the First Affiliated Hospital of Wenzhou Medical University (Approval No. WYYY-IACUC-AEC-2024-079). The experimental animals were cared in accordance with the Guide for the Care and Use of Laboratory Animals issued by the National Research Council, complying with the ARRIVE guidelines. The 6–8 weeks old Sprague-Dawley rats were obtained from Vital River Laboratory Animal Technology Co., Ltd (China, Zhejiang). The rats were housed at 25 °C and given a 14-day acclimation period under experimental conditions to reduce potential variability.
Due to the similarity between their hepatic enzyme system and humans, SD male rats are widely used in pharmacokinetics ([Riccardi et al., 2018]; [Martignoni, Groothuis & De Kanter, 2006]). A total of 10 SD male rats (200 ± 20 g) were randomly divided into two groups (n = 5): Group A (control group) and Group B (experimental group). The animals were fasted for 12 h prior to the experiment but had free access to water. […] And the concentration of tropifexor was determined to be 20 µg/kg based on body surface area conversion from human administered doses in prior literature ([Chen et al., 2022a]). Experimental group was received of tropifexor (20 µg/kg) via oral gavage, whereas control group was administered of an equivalent volume of corn oil. […] Blood samples were then collected at different time points at 0.5, 1, 1.5, 2, 4, 8, 12, 24, and 48 h after administration. Each blood sample (approximately 0.3 mL) was taken from the caudal veins, and was collected into 1.5 mL heparinized polyethylene tubes. After centrifuged at 13,000 rpm for 10 min, the supernatant was collected and stored at −80 °C. The plasma sample was treated according to 2.4 Pre-treatment of samples before UPLC-MS/MS analysis.
Pharmacokinetic parameters were calculated using the Drug and Statistics (DAS) software (version 3.0 software, Mathematical Pharmacology Professional Committee of China, Shanghai, China) with non-compartment model analyses based on the input data of drug administration route, dosage, drug concentration, and time.

[2] = Stability of analytes in rat plasma (UPLC-MS/MS method validation); assay type: in vitro ADME; conditions: n = 5
Method: The sensitivity of the method was reflected by the lower limit of quantification (LLOQ), which was also the lowest quantitative point. The LLOQ and three QC samples were obtained by the same method. […] All chemicals and solutions were stored at −80 °C for further use. Protein precipitation was used to remove proteins from plasma and extract the test materials. […] The mixture was then centrifuged at 13,000 rpm for 10 min at 4 °C to ensure complete protein precipitation. After centrifugation, the supernatant was carefully collected and transferred into a sample vial. Finally, 2.0 µL of sample was injected for UPLC-MS/MS analysis. The calibration curve, selectivity, accuracy, precision, recovery, matrix effect, and stability of the method established in this study were validated according to the FDA Bioanalytical Method Validation Guidance and the guidelines from the National Medical Products Administration (NMPA). Detailed information regarding the evaluation could be found in the Results and Discussion sections.

[3] = set-up: method as in Johnson et al., 2015; conditions: humans; ref Johnson et al., 2015; cited from earlier work
[4] = cited from earlier work
[5] = set-up: method as in Xu et al., 2015; conditions: compared to a single oral dose of 150 mg crizotinib; ref Xu et al., 2015; cited from earlier work
[6] = set-up: method as in Chen, Li & Chen, 2022; conditions: PBPK model, cancer patients; ref Chen, Li & Chen, 2022; cited from earlier work
RLM = test system: RLM; set-up: method as in Wang et al., 2024; conditions: read-out: Km of crizotinib, ref Wang et al., 2024; cited from earlier work
[7] = set-up: method as in Qiu et al., 2016; conditions: ref Qiu et al., 2016, cited from earlier work
[8] = set-up: method as in Ou, 2011; conditions: humans, single oral dose of 250 mg/d; ref Ou, 2011; cited from earlier work
in vitro [9] = conditions: rat, rat liver microsomes, pH 7.4
Method: (§1) Before measurement, the mixture without NADPH was pre-incubated at 37 °C for 5 min. Then, one mM of NADPH was given to incubate the reaction in a water bath with shaking at a rate of 200 times/min. After 30 min, the reaction was terminated by cooling at −80 °C. Next, 300 µL acetonitrile and 10 µL of the IS working solution were added to the mixture. After shaking for 2 min, the supernatant was obtained by centrifugation at 13,000 rpm for 10 min and subjected to UPLC-MS/MS analysis.
(§2) The Km, IC50, the Lineweaver-Burk plot and the mean plasma concentration–time curve were calculated and plotted using GraphPad Prism 9.0 software (GraphPad Software Inc., California, United States).

in vitro [10] = conditions: human, human liver microsomes, pH 7.4, Km of crizotinib, HLM 0.3 mg/mL, 1 mM NADPH, 0.1–50 µM crizotinib
[11] = test system: rat liver microsomes (RLM); assay: Enzyme kinetics of crizotinib in rat liver microsomes (Michaelis-Menten)
Method: as §1, §2

[12] = test system: crizotinib metabolism in rat liver microsomes (RLM); assay: Inhibition of crizotinib metabolism by tropifexor in RLM (IC50, Lineweaver-Burk); assay type: in vitro ADME
[13] = molecular target: crizotinib metabolism in human liver microsomes (HLM) (Homo sapiens, UniProt P08684); assay: Inhibition of crizotinib metabolism by tropifexor in HLM (IC50, Lineweaver-Burk); assay type: in vitro ADME
crizotinib metabolism in human liver microsomes (HLM), sequence (P08684 2-503): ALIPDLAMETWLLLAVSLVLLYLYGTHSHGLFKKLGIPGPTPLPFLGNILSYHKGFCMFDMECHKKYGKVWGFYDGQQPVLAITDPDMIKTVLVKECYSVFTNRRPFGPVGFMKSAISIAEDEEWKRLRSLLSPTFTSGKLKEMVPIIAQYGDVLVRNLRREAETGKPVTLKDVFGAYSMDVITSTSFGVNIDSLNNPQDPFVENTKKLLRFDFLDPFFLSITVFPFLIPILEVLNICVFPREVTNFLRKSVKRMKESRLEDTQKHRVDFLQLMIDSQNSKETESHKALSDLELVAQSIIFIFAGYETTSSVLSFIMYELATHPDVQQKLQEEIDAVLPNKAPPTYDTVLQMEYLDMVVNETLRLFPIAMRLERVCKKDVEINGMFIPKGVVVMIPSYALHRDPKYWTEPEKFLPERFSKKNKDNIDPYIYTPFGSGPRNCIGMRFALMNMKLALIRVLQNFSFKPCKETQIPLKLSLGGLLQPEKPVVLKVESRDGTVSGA

[14] = set-up: method as in Badman et al., 2020; conditions: healthy volunteers, single dose of up to three mg; ref Badman et al., 2020; cited from earlier work
[15] = set-up: method as in Chen et al., 2022b; conditions: ref Chen et al., 2022b; cited from earlier work
[16] = group Crizotinib + Tropifexor: oral tropifexor 20 µg/kg 30 min before oral crizotinib 25 mg/kg
[17] = group Crizotinib alone: single oral crizotinib 25 mg/kg
[18] = rats, compared to control group

C[C@@H](Oc1cc(-c2cnn(C3CCNC(=O)C3)c2)cnc1N)c1c(Cl)ccc(F)c1Cl (some centres unmarked) [2-Keto crizotinib]
AUC(0-inf) [1, 16]: 880 ± 269 ng·h/mL
AUC(0-t) [1, 16]: 877 ± 268 ng·h/mL
Cmax [1, 16]: 74.3 ± 26.8 ng/mL
Tmax [1, 16]: 8.8 ± 1.79 h
half-life [1, 16]: 5.78 ± 1.79 h
CL/F [1, 16]: 507 mL/min/kg
AUC(0-inf) [1, 17]: 605 ± 99.1 ng·h/mL
AUC(0-t) [1, 17]: 603 ± 97.7 ng·h/mL
Cmax [1, 17]: 51 ± 14.4 ng/mL
Tmax [1, 17]: 8 h
half-life [1, 17]: 4.82 ± 1.18 h
CL/F [1, 17]: 704 mL/min/kg
decrease of CLz/F on co-administration of tropifexor [1, 18]: 27.9%
Stability RE ([2]; 2 ng/mL, 10 °C (4 h)): 2.2%
Stability RE ([2]; 2 ng/mL, 21 days at −80 °C): 14.7%
Stability RE ([2]; 2 ng/mL, room temperature (3 h)): 9.9%
Stability RE ([2]; 2 ng/mL, three freeze-thaw (−80 °C/RT)): 11.9%
Stability RE ([2]; 40 ng/mL, 10 °C (4 h)): 0.6%
Stability RE ([2]; 40 ng/mL, 21 days at −80 °C): 5.2%
Stability RE ([2]; 40 ng/mL, room temperature (3 h)): 2.0%
Stability RE ([2]; 40 ng/mL, three freeze-thaw (−80 °C/RT)): −0.7%
Stability RE ([2]; 80 ng/mL, 10 °C (4 h)): −0.6%
Stability RE ([2]; 80 ng/mL, 21 days at −80 °C): 5.9%
Stability RE ([2]; 80 ng/mL, room temperature (3 h)): 3.0%
Stability RE ([2]; 80 ng/mL, three freeze-thaw (−80 °C/RT)): −0.7%

C[C@@H](Oc1cc(-c2cnn(C3CCNCC3)c2)cnc1N)c1c(Cl)ccc(F)c1Cl [crizotinib, Crizotinib]
AUC(0-inf) [1, 16]: 5670 ng·h/mL
AUC(0-t) [1, 16]: 5560 ng·h/mL
Cmax [1, 16]: 326 ± 41 ng/mL
Tmax [1, 16]: 8.8 ± 1.79 h
half-life [1, 16]: 8.23 ± 1.65 h
CL/F [1, 16]: 76 mL/min/kg
AUC(0-inf) [1, 17]: 4140 ng·h/mL
AUC(0-t) [1, 17]: 4100 ng·h/mL
Cmax [1, 17]: 237 ± 45.3 ng/mL
Tmax [1, 17]: 8.8 ± 1.79 h
half-life [1, 17]: 6.83 ± 0.77 h
CL/F [1, 17]: 102 mL/min/kg
increase of AUC(0−t) on co-administration of tropifexor [1, 18]: 35.7%
increase of AUC(0−∞) on co-administration of tropifexor [1, 18]: 36.9%
Stability RE ([2]; 5 ng/mL, 10 °C (4 h)): 0.5%
Stability RE ([2]; 5 ng/mL, 21 days at −80 °C): −1.9%
Stability RE ([2]; 5 ng/mL, room temperature (3 h)): −9.0%
Stability RE ([2]; 5 ng/mL, three freeze-thaw (−80 °C/RT)): −8.3%
Stability RE ([2]; 120 ng/mL, 10 °C (4 h)): 5.9%
Stability RE ([2]; 120 ng/mL, 21 days at −80 °C): 4.7%
Stability RE ([2]; 120 ng/mL, room temperature (3 h)): −6.9%
Stability RE ([2]; 120 ng/mL, three freeze-thaw (−80 °C/RT)): −7.1%
Stability RE ([2]; 240 ng/mL, 10 °C (4 h)): 3.6%
Stability RE ([2]; 240 ng/mL, 21 days at −80 °C): 6.9%
Stability RE ([2]; 240 ng/mL, room temperature (3 h)): −1.6%
Stability RE ([2]; 240 ng/mL, three freeze-thaw (−80 °C/RT)): −7.4%
drug excreted unchanged in the feces [3]: approximately 63%
likelihood of crizotinib-induced hepatotoxicity, patients with pre-existing liver conditions vs without liver disease ([4]; ref Jung et al., 2018): 2.3 times
patients with elevated alanine aminotransferase (ALT) levels ([4]; standard dose of crizotinib, ref Kazandjian et al., 2014): 17%
patients with Grade 1 or 2 liver abnormalities ([4]; typically within two months of treatment, reversible, ref Revol et al., 2020): 30%
increase in AUC on co-administration with ketoconazole [5]: 2.2 fold
predicted increase of AUC when co-administered with fluconazole [6]: 58%
predicted increase of AUC when co-administered with itraconazole [6]: 79%
predicted increase of AUC when co-administered with voriconazole [6]: 84%
Km (RLM): 4.61 ± 0.28 µM
Cmax ([7]; SD rats, oral 24 mg/kg): 309 ± 39.8 ng/mL
Tmax ([7]; SD rats, oral 24 mg/kg): 2.00 ± 0.00 h
oral absolute bioavailability ([7]; rats): 68.6 ± 9.63%
time at which Cmax was observed [8]: 4 h
Km at 30 min (in vitro [9]): 1 µM
Km at 30 min (in vitro [10]): 15 µM
Vmax [11]: 0.01457 pmol/min/µg protein

O=C(O)c1cc(F)c2nc(N3[C@@H]4CC[C@H]3C[C@@H](OCc3c(-c5ccccc5OC(F)(F)F)noc3C3CC3)C4)sc2c1 [tropifexor, Tropifexor]
inhibition mechanism on crizotinib metabolism [12]: non-competitive and uncompetitive
α [12]: 0.66
Ki ([12]; n = 3): 5.6 µM
αKi ([12]; n = 3): 3.72 µM
IC50 ([12]; read-out: IC50 of tropifexor on crizotinib metabolism, crizotinib at Km): 4.43 µM
inhibition mechanism on crizotinib metabolism [13]: competitive and non-competitive
α [13]: 2.71
IC50 at 0.5 h ([13]; human, liver microsomes, pH 7.4, IC50 of tropifexor on crizotinib metabolism, crizotinib at Km): 4.3 µM
Ki at 0.5 h ([13]; human, liver microsomes, pH 7.4, n = 3): 4.93 µM
αKi ([13]; n = 3): 13.38 µM
safety and tolerability [14]: safe and well-tolerated
decrease in Cmax on co-administration with a CYP3A4 inhibitor [15]: 9%
decrease in Cmax on co-administration with the CYP3A4 inducer rifampin [15]: 55%
